Source: patent publication US20250154140A1 (Sunnybrook Research Institute, priority 2022, published 2025)

Assays:
[1] = biological target: BAX (Homo sapiens, UniProt Q07812); assay: 1H-15N HSQC NMR chemical shift perturbations with 15N-labelled BAX; type: binding; design: NMR experiments used full-length WT BAX at a concentration of 200 μM; made in house; host or cells: Escherichia coli BL21-AI (minimal media, 15N); details: 200 uM BAX
Method: All experiments were performed using an independent sample for each measurement and were DMSO matched to account for environment changes due to the solvent. ^15N-labeled BAX was prepared as described above in 50 mM potassium phosphate pH 6, 50 mM NaCl, and 10% D2O. Samples were mixed before loading 40 μL in a 1.7 mm sample tube. […] NMR experiments used full-length WT BAX at a concentration of 200 μM. Experiments were conducted on a 600 MHz Bruker Avance magnet at 25° C. Chemical shift perturbations (CSP) were calculated in CCPNMRv3 using an automated analysis, where all peaks were matched to their extrema and calculated using the equation: […]
In the CSP equation above, α denotes the relative weighting of chemical shift changes of the ^15N relative to ^1H nuclei. ΔδHX and ΔδNx are the observed changes of the proton and nitrogen chemical shifts for residue x, respectively. As a note, all amino acid positions on the HSQC were manually inspected to use the extrema of the nearest identified peak. The absence of a bar in the CSP graph indicates no chemical shift, the presence of a proline, or a missing residue peak not used for analysis. Significance threshold was calculated as the average of chemical shifts across all residues plus the standard deviation. […]

[2] = biological target: T1, BAK (Mus musculus, UniProt O08734); assay: Permeabilization of isolated mitochondria, Smac-mCherry release (BIM activated BAK); type: biochemical; details: concentrations up to 60 uM
T1 construct: endogenous in cells; host or cells: heavy membranes (mitochondria) of BAX-/- baby mouse kidney cells expressing Smac-mCherry
T1 sequence (O08734 2-209 limits assumed): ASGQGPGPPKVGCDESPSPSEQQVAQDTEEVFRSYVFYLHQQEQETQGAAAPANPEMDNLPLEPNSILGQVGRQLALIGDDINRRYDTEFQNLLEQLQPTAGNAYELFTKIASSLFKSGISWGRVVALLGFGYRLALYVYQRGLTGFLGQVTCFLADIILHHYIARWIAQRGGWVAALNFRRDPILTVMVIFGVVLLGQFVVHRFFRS

[3] = test system: diverse panel of 58 kinases; assay: Kinase panel (Eurofins KinaseProfiler); type: biochemical; details: 1 uM
Method: For the kinase panel, % inhibition was measured using standardized assay conditions at the KinaseProfiler service (Eurofins Pharma Discovery Services). Compounds were sent for testing as dry powder.

[4] = biological target: T2, V83W L120W BAX (Homo sapiens, UniProt Q07812, L120W/V83W); assay: ANTS/DPX liposome permeabilization with BAX mutant; type: biochemical; details: 100 nM V83W L120W BAX, 20 nM cBID, 20 uM compound
T2 construct: made in house
T2 sequence (Q07812 whole entry V83W/L120W): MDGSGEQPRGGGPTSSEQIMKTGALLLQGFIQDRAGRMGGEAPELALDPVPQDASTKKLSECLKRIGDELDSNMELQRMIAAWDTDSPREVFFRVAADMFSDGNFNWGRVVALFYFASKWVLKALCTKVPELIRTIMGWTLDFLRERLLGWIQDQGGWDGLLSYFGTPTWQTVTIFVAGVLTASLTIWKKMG
Method: For ANTS/DPX dye release assays: ANTS (fluorophore; excitation 355 nm, emission 520 nm) and DPX (collisional quencher) are encapsulated in reconstituted liposomes. When the membrane is permeabilized, ANTS and DPX diffuse to the outside of the liposomes, decreasing the effective concentration DPX and therefore quenching by […] is decreased and ANTS fluorescence increases. ANTS/DPX liposomes (8 uL of mg/mL liposome preparation per 100 μL of reaction) were added to individual wells of multi-well plates (100 μL final volume for 96 well plates or (30 μL total volume for 384 well plates) in assay buffer (10 mM HEPES pH 7.2, 200 mM KCl, and 5 mM MgCl2). The background fluorescence of the liposomes and the compound dissolved in DMSO was measured for 10 minutes to ensure fluorescent signal stabilized (F0). Unless explicitly stated, 20 nM cBID and 100 nM BAX were added sequentially to each well and mixed thoroughly. The fluorescence intensity of ANTS was measured every minute for 2-3 hours until the signal stabilizes at a plateau (F). […] The plate was then read a third time to assess the fluorescence of ANTS upon full dissociation of liposomes in each well (F100). The percentage of dye release from the liposomes due to the action of cBID and BAX is calculated as: […]

BAX, sequence (Q07812 whole entry): as the sequence (Q07812 whole entry V83W/L120W) above, with W83V, W120L counted along it

Structure (SMILES)	binding to BAX (chemical shift perturbations) [1]	inhibition of BAK mediated permeabilization of mitochondria [2]	activity across kinase panel (percent kinase inhibition) [3]	inhibition of mutant BAX [4]
COc1cc2ccnc(Nc3ccc(F)c(Cl)c3)c2cc1NC(=O)CCCN1CCCCC1 [Compound I-1, N-(1-((3-chloro-4-fluorophenyl)amino)-6-methoxyisoquinolin-7-yl)-4-(piperidin-1-yl)butanamide]	bind the cytosolic conformation of BAX	equally effective inhibitors	minimal activity	–
COc1cc2ncnc(Nc3ccc(F)c(Cl)c3)c2cc1NC(=O)/C=C/CN1CCCCC1 [Dacomitinib, reference compound]	–	equally effective inhibitors	–	reduced inhibition
